Test results as given in paper PMC11648835 (Chemmedchem, 2024).
“Also recorded” adds a separate entry of the source.

How the values were obtained:
[1] = tested on: Mycobacterium tuberculosis mc^26206 (WT); format: cell-based
[2] = tested on: Mtb strain mc^26206 wild-type, hypoxic non-replicating; format: cell-based, Mycobacterium tuberculosis
[3] = tested on: panel of bacteria consisting of S. aureus, E. faecium, E. coli, K. pneumoniae, A. baumannii and P. aeruginosa; format: cell-based
[4] = tested on: Mtb-infected human THP-1 macrophages; format: cell-based, Mycobacterium tuberculosis

SMILES	anti-tuberculosis activity against wild type Mtb (in words) [1]	intracellular anti-tuberculosis activity (in words) [4]	other results
O=c1ccc2nc3ccc(OCC4(CO)COC4)cc3oc-2c1 [Compound 6y, 7‐((3‐(Hydroxymethyl)oxetan‐3‐yl)methoxy)‐3H‐phenoxazin‐3‐one]	completely inactive	–	–
O=c1ccc2nc3ccc(OCc4ccc([N+](=O)[O-])cc4)cc3oc-2c1 [Compound 6b, 7‐((4‐Nitrobenzyl)oxy)‐3H‐phenoxazin‐3‐one]	no anti‐tuberculosis activity	–	MIC90 Mtb WT [1]: >256 µM
COc1ccc2nc3ccc(=O)cc-3oc2c1 [Compound 6j, 7‐Methoxy‐3H‐phenoxazin‐3‐one]	–	–	time-kill kinetic assay under hypoxia (in words) [2]: inactive
O=c1ccc2nc3ccc(O)cc3oc-2c1 [Compound 2, resorufin, reference compound]	no anti‐tuberculosis activity; also recorded: inactive	–	activity against a panel of bacteria (in words) [3]: inactive
COCOc1ccc2nc3ccc(=O)c(I)c-3oc2c1 [Compound 8h, 4‐Iodo‐7‐(methoxymethoxy)‐3H‐phenoxazin‐3‐one]	–	intracellular TB killing	–
O=c1ccc2nc3ccc(OCc4ccccc4)cc3oc-2c1 [Compound 6g, 7‐(Benzyloxy)‐3H‐phenoxazin‐3‐one]	no anti‐tuberculosis activity	–	–
O=c1ccc2nc3ccc(OCCO)cc3oc-2c1 [Compound 6s, 7‐(2‐Hydroxyethoxy)‐3H‐phenoxazin‐3‐one]	completely inactive	–	–
COCCOc1ccc2nc3ccc(=O)cc-3oc2c1 [Compound 6i, 7‐(2‐Methoxyethoxy)‐3H‐phenoxazin‐3‐one]	–	intracellular TB killing	intracellular Mtb survival [4]: approximately 10%
O=c1ccc2nc3ccc(OCc4ccc([N+](=O)[O-])o4)cc3oc-2c1 [Compound 1, 7‐((5‐Nitrofuran‐2‐yl)methoxy)‐3H‐phenoxazin‐3‐one]	–	intracellular TB killing	time-kill kinetic assay under hypoxia (in words) [2]: inactive; activity against a panel of bacteria (in words) [3]: inactive
